Data reported in article PMC11921344, “Antimicrobial peptide DiPGLa-H exhibits the most outstanding anti-infective activity among the PGLa variants based on a systematic comparison” (Applied and Environmental Microbiology, 2025).
Where no end group is shown, it is not given here.

Columns and labels:
S. aureus Mu50 = experiment: ROS generation (DCFH-DA); format: cell-based, Staphylococcus aureus MRSA; details: 8 µM DiPGLa-H, 1 h 37°C, DCFH-DA 10 µM
Method: 2′,7′-Dichlorofluorescin diacetate (DCFH-DA) was used to determine the intracellular production of ROS as previously described. S. aureus Mu50 and E. coli K88 cells were diluted until OD600 = 0.4 and incubated in different concentrations of peptide at 37°C for 1 h. Next, the mixed solution was incubated with 10 µM DCFH-DA at 37°C for 1 h. The fluorescence (excitation wavelength = 488 nm, emission wavelength = 525 nm) was monitored with an Infinite 200 pro fluorescence spectrophotometer (Tecan, China). Each test was measured in triplicate and tested twice.

E. coli ATCC25922 = format: cell-based, Escherichia coli
Method: The antibacterial activity was evaluated using a standard MIC and MBC assay according to the National Committee for Clinical Laboratory Standards (NCCLS). MIC, MBC assay, and time-kill curves for the optimal peptide are provided in the Supplementary Materials.
Antimicrobial Activity Assays. The antibacterial activity of the peptides was determined using a method designed from the National Committee for Clinical Laboratory Standards (NCCLS) in the United States. All the strains used in the experiment are preserved in the laboratory. Briefly, log phase bacterial cells were diluted in MHB to a final concentration of 0.5-1x10^5 CFU/mL. Subsequently, 50μL of different concentrations of polypeptides were incubated with 50 μL of bacterial solution in sterile 96-well plates. In the minimum inhibitory concentration (MIC) assay, […], and the minimum inhibitory concentration (MIC) was determined by the absorbance at 492 nm of the microplate reader, and the minimum inhibitory concentration (MIC) inhibited 95% of bacteria grow. Determination of minimum bactericidal concentration: the plate was incubated at 37°C for 4 hours, 50 μL of the mixture was taken out of each well, diluted with an appropriate amount of PBS, smeared on the agar plate, and cultured overnight. Colonies were counted and the initial CFU/well was retrospectively calculated the following day. The lowest concentration of peptide that kills 99.9% of bacterial cells is the minimum bactericidal concentration (µM), Each test was replicated at least 3 times.

[1] = tested on: E. coli K88 outer membrane; experiment: Outer membrane integrity assay (NPN uptake); format: cell-based, Escherichia coli
Method: The outer and inner membrane integrity of bacterial cells treated with peptides was assessed using NPN and PI staining, respectively. Full details are provided in the Supplementary Materials.
Membrane permeabilization. Outer membrane integrity assay. The fluorescent probe NPN (Sigma-Aldrich, catalog no. 104043, ≥98%) was used to assess the outer membrane integrity of DiPGLa-H or mucin-treated E. coli K88. Briefly, log-medium E. coli K88 cells (OD600 = 0.2) were incubated with NPN (10 μM) in 5 mM HEPES buffer (pH 7.4, containing 5 mM glucose) for 30 min, and background fluorescence was recorded for subtraction. (excitation λ = 350 nm, emission λ = 420 nm) using a microplate reader (Varioskan Flash; Thermo, America). Subsequently, 100 μL of cell suspension was mixed with an equal volume of peptide solutions ranging in concentration from 4 to 64 μM in a sterile 96-well black plate. Fluorescence was recorded over time until no further increase in fluorescence was detected. Each test was performed independently, in duplicate, with three biological replicates, and results were converted to percent NPN uptake using the equation. NPN uptake (%) = (Fobs – Fbuffer)/ (Fpositive – Fbuffer) ×100%.
where Fobs is the observed fluorescence at a given peptide concentration, Fbuffer is the fluorescence of the buffer, and Fpositive is the fluorescence of NPN with microbial cells upon addition of 10 μg/mL polymyxin B (Sigma), which was used as a positive control because of its strong outer membrane-permeabilizing property. Untreated cell suspension served as the negative control.

[2] = tested on: A. baumannii ATCC19606 biofilm; experiment: Anti-biofilm assay (crystal violet); format: cell-based, Acinetobacter baumannii
Method: The anti-biofilm activity of DiPGLa-H was evaluated using a crystal violet staining method. Briefly, 100 µL of bacterial suspension at 1 × 10^6 CFU/mL was incubated with DiPGLa-H (0–64 µM) for 48 h. The biofilm formed was stained with 1% crystal violet, and the absorbance was measured at 595 nm. The biofilm formation and mature biofilm removal assays were conducted. For biofilm formation, a bacterial suspension was incubated with DiPGLa-H, and biofilm content was quantified. To assess mature biofilm removal, pre-formed biofilms were treated with DiPGLa-H for 24 h, followed by quantification. Detailed Protocol in Supplementary Materials.
To test the ability of DiPGLa-H to […] on the test bacteria, a single colony was inoculated in MHB medium and incubated overnight at 37 °C and 180 r/min, and 1% of the bacterial suspension was taken and continued to be amplified and incubated for 2 h. […] The biofilm content was analyzed by measuring the absorbance value at 595 nm, and anhydrous ethanol was used as a blank control. […]

KIAKVALKALKIAKVALKAL-NH2 (C-terminus assumed) [DiPGLa-H]
elevation of ROS production vs untreated (S. aureus Mu50): 4.6 fold | MBC E. coli ATCC25922 (E. coli ATCC25922; ATCC25922, 4 h): 8 µM | MIC E. coli ATCC25922 (E. coli ATCC25922; ATCC25922, 24 h): 8 µM | outer membrane permeability (NPN uptake) ([1]; 64 µM peptide, relative to 10 µg/mL polymyxin B = 100%): 184.4% | membrane permeability ([1]; 1× MIC): approximately 80% | fold higher TIall vs kiadin-2: 2.5 fold | concentration for effective inhibition of biofilm formation ([2]; 1×10^6 CFU/mL, DiPGLa-H 0-64 µM, 48 h, crystal violet, 595 nm): above 4 µM | concentration effectively eradicating biofilms ([2]; pre-formed biofilm treated with DiPGLa-H 0-64 µM for 24 h): above 16 µM
